This note sets out measurements from ChEMBL document CHEMBL3407345, “Synthesis and biological evaluation of pyridazino[1',6':1,2]pyrido[3,4-b]indolinium and pyridazino[1,6-a]benzimidazolium salts as anti-inflammatory agents” (Eur J Med Chem, 2015).

The nature of series [1]: Anti-inflammatory activity in human THP1 cells assessed as inhibition of LPS-stimulated TNFalpha production at 50 uM incubated for 24 hrs followed by further stimulation with LPS during last 4 hrs by ELISA method. Type of series: functional. To be noted: THP-1. On the technique in general: In an ELISA, binding on a coated surface is turned into a signal by an enzyme label.

Series [2] is described as follows: Anti-inflammatory activity in human THP1 cells assessed as inhibition of LPS-stimulated TNFalpha production at 10 uM incubated for 24 hrs followed by further stimulation with LPS during last 4 hrs by ELISA method. To be noted: THP-1. Type of series: functional.
A short description of series [3]: Toxicity against LPS-stimulated human THP1 cells assessed as cell viability at 10 uM incubated for 24 hrs by propidium iodide staining based flow cytometry relative to control. On the set-up: species or system THP-1. To be noted: read-out: Activity. For orientation: A flow cytometer gives signals particle by particle.
Series [4] can be described thus: Toxicity against human THP1 cells assessed as cell viability at 10 uM incubated for 24 hrs by propidium iodide staining based flow cytometry. To be noted: thp-1, 24 h.
Series [5] in a line: Toxicity against LPS-stimulated human THP1 cells assessed as cell viability at 10 uM incubated for 24 hrs by propidium iodide staining based flow cytometry. Particulars: thp-1, 24 h.
A short description of series [6]: Anti-inflammatory activity in human THP1 cells assessed as inhibition of LPS-stimulated TNFalpha production at 100 uM incubated for 24 hrs followed by further stimulation with LPS during last 4 hrs by ELISA method. In kind it is functional. To be noted: THP-1.
Series [7] is described as follows: Anti-inflammatory activity in human THP1 cells assessed as inhibition of LPS-stimulated TNFalpha production at 25 uM incubated for 24 hrs followed by further stimulation with LPS during last 4 hrs by ELISA method. Type of series: functional. Particulars: THP-1.
The nature of series [8]: Anti-inflammatory activity in human THP1 cells assessed as inhibition of LPS-stimulated TNFalpha production incubated for 24 hrs followed by further stimulation with LPS during last 4 hrs by ELISA method. In kind it is functional, cell-based. Particulars: THP-1.
Series [9] is described as follows: Anti-inflammatory activity in human THP1 cells assessed as inhibition of LPS-stimulated TNFalpha production at 5 uM incubated for 24 hrs followed by further stimulation with LPS during last 4 hrs by ELISA method. Type of series: functional. To be noted: THP-1.
The nature of series [10]: Anti-inflammatory activity in human THP1 cells assessed as inhibition of LPS-stimulated TNFalpha production at 1 uM incubated for 24 hrs followed by further stimulation with LPS during last 4 hrs by ELISA method. Particulars: THP-1. In kind it is functional.
Series [11] in a line: Anti-inflammatory activity in human THP1 cells assessed as inhibition of LPS-stimulated TNFalpha production at 0.1 uM incubated for 24 hrs followed by further stimulation with LPS during last 4 hrs by ELISA method. In kind it is functional. Particulars: THP-1.
Series [12] deals with T1, Tumor necrosis factor receptor superfamily member 1A (Homo sapiens, UniProt P19438).
T1 sequence (P19438 whole entry): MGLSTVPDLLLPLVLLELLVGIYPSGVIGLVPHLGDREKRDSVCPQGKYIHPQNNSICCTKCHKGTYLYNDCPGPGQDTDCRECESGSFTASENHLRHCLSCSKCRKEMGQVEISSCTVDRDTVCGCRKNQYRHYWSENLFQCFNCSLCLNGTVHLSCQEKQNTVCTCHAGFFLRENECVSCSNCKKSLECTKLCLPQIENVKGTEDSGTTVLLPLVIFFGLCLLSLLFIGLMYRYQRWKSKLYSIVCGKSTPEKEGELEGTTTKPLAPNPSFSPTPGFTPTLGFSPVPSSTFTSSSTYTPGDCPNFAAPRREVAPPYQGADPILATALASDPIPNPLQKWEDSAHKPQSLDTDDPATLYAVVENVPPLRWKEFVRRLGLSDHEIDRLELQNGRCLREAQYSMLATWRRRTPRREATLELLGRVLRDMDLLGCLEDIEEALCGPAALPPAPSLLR
In words: Inhibition of TNFR1 (unknown origin).

As for `CCc1cc2c3c(cc[n+]2nc1CC)c1ccc(OC)cc1n3CC(=O)O.Cc1cc(C)cc(CS(=O)(=O)[O-])c1`, the inhibition at 50 µM in series [1] was determined as 35%. Besides, the inhibition at 10 µM in series [2] worked out at 38%. Also, the viability at 24 h, 10 µM in series [3] came out at 93%. Moreover, the Activity entry in series [4] and in [5] was “Non-toxic” in each case. In addition, the inhibition at 100 µM in series [6] is 40%. The inhibition at 25 µM in series [7] turned out to be 29%.

On to `C#CCCCn1c2cc(OC)ccc2c2cc[n+]3nc4c(cc3c21)-c1cccc2cccc-4c12.Cc1cc(C)cc(CS(=O)(=O)[O-])c1`, for which the inhibition at 10 µM in [2] came to 94%. Also, in series [3], the viability at 24 h, 10 µM was determined as 0%. The Activity result in series [4] and in [5] was “Non-toxic” each time.

`CCOC(=O)Cn1c2cc(OC)ccc2c2cc[n+]3nc(CC)c(CC)cc3c21.Cc1cc(C)cc(CS(=O)(=O)[O-])c1`: in [8], the half-maximal inhibitory concentration (IC50) worked out at 11.5 µM. Also, the inhibition at 5 µM in series [9] turned out to be 67%. In addition, in [2], the inhibition at 10 µM was 45%. Further, in [3], the viability at 24 h, 10 µM turned out to be 89.7%. Besides, the inhibition at 1 µM in [10] turned out to be 51%. The Activity result in series [4] and in series [5] was “Non-toxic” throughout. Further, the inhibition at 25 µM in series [7] is 94%.

As to `Cc1cc(C)cc(CS(=O)(=O)[O-])c1.O=C(O)CCCn1c2ccccc2[n+]2nc3c(cc12)-c1cccc2cccc-3c12`, the IC50 in series [8] came out at 39.2 µM. The inhibition at 50 µM in series [1] worked out at 70%. Besides, the inhibition at 10 µM in series [2] was 19%. Also, the viability at 24 h, 10 µM in [3] was 86%. Further, the Activity entry in series [4] and in series [5] was “Non-toxic” in each case. The inhibition at 100 µM in [6] came out at 85%. Besides, the inhibition at 25 µM in series [7] worked out at 47%.

As to `CCc1cc2c3c(cc[n+]2nc1CC)c1ccc(OC)cc1n3CCCC#CC#CCCCn1c2cc(OC)ccc2c2cc[n+]3nc(CC)c(CC)cc3c21.Cc1cc(C)cc(CS(=O)(=O)[O-])c1.Cc1cc(C)cc(CS(=O)(=O)[O-])c1`, the inhibition at 10 µM in [2] was determined as 34%. Besides, in [3], the viability at 24 h, 10 µM was 9.54%. Moreover, the Activity entry in series [4] and in series [5] was “Non-toxic” each time.

Consider `C#CCCCn1c2cc(OC)ccc2c2cc[n+]3nc(-c4ccco4)c(-c4ccco4)cc3c21.Cc1cc(C)cc(CS(=O)(=O)[O-])c1`, for which the inhibition at 10 µM in series [2] was found to be 87%. Besides, the viability at 24 h, 10 µM in series [3] was 0%. Besides, the Activity entry in [4] and in series [5] was “Non-toxic” each time.

Consider `CN(C)CCC[N+](C)(C)CCCn1c2ccccc2[n+]2nc3c(cc12)-c1cccc2cccc-3c12.[Br-].[Br-]`, for which the inhibition at 10 µM in series [2] was determined as 39%. The viability at 24 h, 10 µM in series [3] is 25.3%. Besides, the Activity entry in [4] and in series [5] was “Non-toxic” in each case.

With `Cc1cc(C)cc(CS(=O)(=O)[O-])c1.O=C(O)Cn1c2ccccc2[n+]2nc3c(cc12)-c1cccc2cccc-3c12`, the concentration for half-maximal inhibition (IC50) in series [8] was 14.6 µM. In addition, the inhibition at 5 µM in series [9] is 7%. Further, in [2], the inhibition at 10 µM came out at 45%. The inhibition at 0.1 µM in [11] came out at 9%. Also, in series [3], the viability at 24 h, 10 µM is 69.9%. For the same compound, the inhibition at 1 µM in series [10] was 12%. For the same compound, the Activity entry in series [4] and in series [5] was “Non-toxic” in each case. Besides, the inhibition at 25 µM in series [7] amounted to 84%.

For `CCc1cc2c3c(cc[n+]2nc1CC)c1ccc(OC)cc1n3CCCI.[I-]`, the 50% inhibitory concentration (IC50) in [8] amounted to 9.88 µM. Besides, the inhibition at 5 µM in series [9] was 36%. For the same compound, the inhibition at 10 µM in series [2] was 72%. For the same compound, in series [3], the viability at 24 h, 10 µM is 63.3%. Also, in series [10], the inhibition at 1 µM was found to be 11%. Also, the Activity result in series [4] and in [5] was “Non-toxic” each time. Moreover, the inhibition at 25 µM in series [7] was 79%.

On to `CCc1cc2c3c(cc[n+]2nc1CC)c1ccc(OCc2ccccc2)cc1n3C(=O)OC(C)(C)C.Cc1cc(C)cc(CS(=O)(=O)[O-])c1`, for which the inhibition at 10 µM in series [2] is 94%. Besides, in series [3], the viability at 24 h, 10 µM was found to be 33%. Further, the Activity result in [4] and in series [5] was “Non-toxic” throughout.

In the case of `O=C1NC2c3ccccc3C(=O)N2c2ccccc21` (stereo not given), in [8], the IC50 worked out at 9.33 µM.

As to `Cc1cc2occ(CN(C)CCN(C)Cc3cn(-c4cccc(C(F)(F)F)c4)c4ccccc34)c(=O)c2cc1C`, in [12], it took 22 µM to reach half-maximal inhibition (IC50).

For `CCc1cc2c3[nH]c4c(N)cccc4c3cc[n+]2nc1CC.Cl.Cl`, the inhibition at 5 µM in [9] is -13.4%. In addition, the inhibition at 10 µM in series [2] worked out at 88%. In series [3], the viability at 24 h, 10 µM came out at 65%. For the same compound, the inhibition at 1 µM in [10] turned out to be 13.3%. For the same compound, the Activity entry in series [4] and in [5] was “Non-toxic” in each case.

For `Cc1ccc(C2=Cc3ccccc3C3N(C)C(=O)c4ccccc4N23)cc1` (stereo not given), in series [2], the inhibition at 10 µM amounted to 47%.

Consider `CCc1cc2c3[nH]c4c([N+](=O)[O-])cccc4c3cc[n+]2nc1CC.Cc1cc(C)cc(CS(=O)(=O)[O-])c1`, for which the inhibition at 5 µM in [9] came out at 56%. Besides, the inhibition at 10 µM in series [2] worked out at 29%. In addition, in [3], the viability at 24 h, 10 µM is 79.4%. The inhibition at 1 µM in series [10] amounted to 44%. Besides, the Activity entry in series [4] and in series [5] was “Non-toxic” in each case. For the same compound, the inhibition at 25 µM in series [7] was found to be 47%.

As for `CCc1cc2c3[nH]c4ccc(Br)cc4c3cc[n+]2nc1CC.Cc1cc(C)cc(CS(=O)(=O)[O-])c1`, the inhibition at 10 µM in [2] came to 89%. Moreover, the viability at 24 h, 10 µM in series [3] amounted to 3.76%. In addition, the Activity entry in series [4] and in [5] was “Non-toxic” each time.

By inhibition is commonly meant the relative decrease from the control value, in per cent. As a reminder, the IC50 is the concentration at which inhibition is half-maximal.
